According to publication PMC4501547, “Virtual and In Vitro Screens Reveal a Potential Pharmacophore that Avoids the Fibrillization of Aβ1–42” (PLoS ONE, 2015):

What was measured:
[1] = target: T1, Aβ1–42 (amyloid β peptide, 42 residues) (Homo sapiens, UniProt P05067); experiment: Thioflavin T fluorescence fibrillization assay; format: biochemical
T1 construct: gene APP; wild-type 42-residue peptide Abeta 1-42, cut from amyloid-beta precursor protein (APP770 residues 672-713); lyophilized, chloride salt, purchased from Calbiochem; non-fibrillated at start, aggregating during the assay

[2] = target: T1, Aβ1–42 (amyloid β peptide, 42 residues); experiment: Thioflavin T fluorescence fibrillization assay; format: biochemical; remark: listed apart in the source

T1 sequence (P05067 672-713): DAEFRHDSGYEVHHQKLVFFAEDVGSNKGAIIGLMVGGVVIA

inhibition at 100 µM [1] [%]	IC50 [2] [µM]	SMILES
~50		COc1ccc(C2CNC(=O)C2)cc1OC1CCCC1 (stereo not drawn) [compound 14]
	1.28	CC(C(=O)Nc1ccc(C(C)(C)C)cc1)N1CCCC1 (stereo not drawn) [compound 5]
	34.4	O=C(COc1ccccc1)C1CCCN1 (stereo not drawn) [compound 8]
